This is an account of results in patent US20260248799A1, “COMBINATIONS OF RETINALDEHYDE DEHYDROGENASE 1 (RALDH1) INHIBITORS AND IMMUNOSTIMULATORS AND METHODS USING SAME” (The Trustees of the University of Pennsylvania, priority 2023, published 2026).

One data set relates to Huh1 tumors. Description: Huh1 tumors in nude mice. It is filed as in vivo, mouse. The note with it: huh1 in immunodeficient mice; i.p, 10 mg/kg every day. Here is the method: FIG. 27A: Huh1 tumor-bearing nude mice were treated with C86 (i.p, 10 mg/kg) every day. Three or more independent experiments with at least three replicates per sample type. Two-tailed T test. *p<0.05, **p<0.01, ***p<0.001. FIG. 27B: Equal numbers of Raldh1-KO Huh7 and parental Huh7 cells were seeded and viable cells counted over time. […] FIG. 27C: NU/J mice harboring flank Huh7 tumors were treated i.p with C86 daily or with liposomal chlodronate (CloLipo, 200 μl/mouse) every four days. Tumors were harvested 13 days post tumor induction and analyzed for the frequency (left graph) and number (right graph) of the macrophages (CD45+ F4/80+) under different treatment conditions (X-axis). Three or more independent experiments with at least three replicates per sample type. Two-tailed T test. *p<0.05, **p<0.01, ***p<0.001. FIG. 27D: Pictures depicting size differences amongst tumors in experiment outlined in FIG. 26G. […]
Cultured Huh7, Huh1, Hepa 1-6, Hep55, and FS (as indicated in figure legends) tumor cells were detached using 0.25% trypsin (Gibco, catalog #25200056), washed once with 1×PBS, and counted before implantation. […] Tumor dimensions were measured using a caliper starting at the day indicated in the accompanying figure legend and every two to three days thereafter; volume was calculated by using formula Length*Width^2/2. […]

The nature of data set [1]: Chow PK of C86, 15-day study in CD-1 mice. The conditions noted are these: 15-day period. It counts as in vivo, mouse. Here is the method: FIG. 31A: Completed blood count (CBC) was performed at IDEXX on whole blood collected from indicated RALDH1 genotypes (X-axis). One experiment with four replicates per experimental group. One-way ANOVA. *p<0.05, **p<0.01, ***p<0.001. FIG. 31B: Weights of mice of the indicated RALDH1 genotypes. Siblings were used for all genotypes to control for confounding factors. One experiment with four replicates per experimental group. One-way ANOVA. *p<0.05, **p<0.01, ***p<0.001. […] Diet (or PO) #A, B, and C (shown in the inbox of individual graphs) corresponds to drug dose of 10, 30, and 60 mg/kg respectively. Mice had free access to food and water during the 15-day study.
The PK studies were done at NIH or a commercial CRO—Pharmacon using their in-house standard protocol. […] For C99, IV and PO, performed at NIH using CD-1 mice; formulation: 20% HPbCD in saline.

In the next data set the target is T1, Adrenergic α2B (Homo sapiens, UniProt P18089).
T1 construct: Eurofins Cerep Panlabs (contract panel)
T1 sequence (P18089 whole entry): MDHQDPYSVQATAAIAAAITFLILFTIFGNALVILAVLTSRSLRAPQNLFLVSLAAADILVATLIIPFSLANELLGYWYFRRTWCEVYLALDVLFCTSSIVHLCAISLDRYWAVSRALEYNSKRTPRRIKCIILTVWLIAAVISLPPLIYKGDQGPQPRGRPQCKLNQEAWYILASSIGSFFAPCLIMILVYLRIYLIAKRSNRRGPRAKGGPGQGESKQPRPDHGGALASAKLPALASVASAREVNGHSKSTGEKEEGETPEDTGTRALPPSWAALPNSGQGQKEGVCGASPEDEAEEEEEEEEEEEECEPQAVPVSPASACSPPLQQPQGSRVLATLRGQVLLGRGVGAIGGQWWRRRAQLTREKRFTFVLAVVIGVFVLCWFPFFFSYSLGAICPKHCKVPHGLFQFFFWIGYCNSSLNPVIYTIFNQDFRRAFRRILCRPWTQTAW
Description: Safetyscreen: Adrenergic α2B. The conditions noted are these: read-out: % Inh. Adrenergic α2B. It counts as binding.

The target of another data set is T2, Histamine H1 (Homo sapiens, UniProt P35367).
T2 construct: purchased Eurofins Cereps Panlabs
T2 sequence (P35367 whole entry): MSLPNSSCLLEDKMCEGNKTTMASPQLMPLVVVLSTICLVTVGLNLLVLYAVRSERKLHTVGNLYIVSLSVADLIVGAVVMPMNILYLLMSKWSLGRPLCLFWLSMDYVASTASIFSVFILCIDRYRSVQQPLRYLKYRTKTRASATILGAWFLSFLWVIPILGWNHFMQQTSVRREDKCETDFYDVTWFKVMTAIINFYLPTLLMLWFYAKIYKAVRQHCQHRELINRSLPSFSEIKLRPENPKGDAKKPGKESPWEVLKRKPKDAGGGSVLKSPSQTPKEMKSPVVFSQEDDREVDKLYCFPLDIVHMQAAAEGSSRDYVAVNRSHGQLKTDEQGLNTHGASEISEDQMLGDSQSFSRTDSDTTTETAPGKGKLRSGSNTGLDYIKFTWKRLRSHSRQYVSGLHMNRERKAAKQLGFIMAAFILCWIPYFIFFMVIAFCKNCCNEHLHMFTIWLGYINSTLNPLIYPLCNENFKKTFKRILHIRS
The data set can be described thus: Safetyscreen: Histamine H1. The note with it: read-out: % Inh. Histamine H1. It is filed as binding.

The target in another data set is T3, Progesterone PR-B (Homo sapiens, UniProt P06401).
T3 construct: Eurofins Cereps Panlabs (contract panel)
T3 sequence (P06401 whole entry): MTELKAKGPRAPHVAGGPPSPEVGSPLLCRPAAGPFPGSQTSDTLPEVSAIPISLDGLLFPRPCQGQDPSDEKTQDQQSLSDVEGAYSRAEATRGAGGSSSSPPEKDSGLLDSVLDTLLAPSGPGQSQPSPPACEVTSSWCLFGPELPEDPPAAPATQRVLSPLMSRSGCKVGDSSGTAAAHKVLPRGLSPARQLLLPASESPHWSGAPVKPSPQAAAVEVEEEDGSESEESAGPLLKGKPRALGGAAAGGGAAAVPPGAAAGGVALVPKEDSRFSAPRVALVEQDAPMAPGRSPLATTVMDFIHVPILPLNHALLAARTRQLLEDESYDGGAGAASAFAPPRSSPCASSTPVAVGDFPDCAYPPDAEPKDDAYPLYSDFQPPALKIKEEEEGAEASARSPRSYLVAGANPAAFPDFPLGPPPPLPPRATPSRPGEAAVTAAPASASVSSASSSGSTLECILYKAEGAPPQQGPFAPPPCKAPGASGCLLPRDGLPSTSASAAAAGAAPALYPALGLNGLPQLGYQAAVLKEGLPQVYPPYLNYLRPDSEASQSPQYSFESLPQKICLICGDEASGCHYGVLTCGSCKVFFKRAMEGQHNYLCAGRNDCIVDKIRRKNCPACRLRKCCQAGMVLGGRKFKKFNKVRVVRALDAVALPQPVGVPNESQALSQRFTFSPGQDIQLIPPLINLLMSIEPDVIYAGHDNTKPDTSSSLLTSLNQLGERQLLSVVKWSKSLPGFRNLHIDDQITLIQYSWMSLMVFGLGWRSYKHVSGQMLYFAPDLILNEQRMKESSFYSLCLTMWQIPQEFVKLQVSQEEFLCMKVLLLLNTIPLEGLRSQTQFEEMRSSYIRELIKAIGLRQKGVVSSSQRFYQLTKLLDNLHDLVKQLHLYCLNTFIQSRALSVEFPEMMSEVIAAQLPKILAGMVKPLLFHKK
The data set can be described thus: Safetyscreen: Progesterone PR-B. It is filed as binding. The conditions noted are these: read-out: % Inh. Progesterone PR-B.

The test system of a further data set is Sodium Channel, Site 2. The data set can be described thus: Safetyscreen: Sodium Channel, Site 2. It counts as binding, rat. The conditions noted are these: 10 μM.
The target in the next data set is T4, Transporter, GABA (Rattus norvegicus, UniProt P23978).
T4 construct: purchased Eurofins Cereps Panlabs
Description: Safetyscreen: GABA transporter. The conditions noted are these: read-out: % Inh. Transporter, GABA. It counts as binding.

Turning to `CS(=O)(=O)N1CCN(C(=O)c2cnc3ccc(F)cc3c2N2CCC(C#N)(c3ccccc3)CC2)CC1` [Compound C-86, 1-(6-fluoro-3-(4-(methylsulfonyl)piperazine-1-carbonyl)quinolin-4-yl)-4-phenylpiperidine-4-carbonitrile], the tumor inhibition entry in the data set on Huh1 tumors is “significant tumor inhibition”. Besides, the “drug exposure over time” value in data set [1] (chow, 10, 30 and 60 mg/kg) is reported as “consistent drug exposure over time”. Further, in data set [1] (chow), the body weight entry was “without affecting body weight”. The inhibition at 10 µM was found to be 9% at Adrenergic α2B; 13% on Histamine H1; 1% on Progesterone PR-B; 4% on Transporter, GABA. In addition, the “% Inh. Sodium Channel, Site 2” value in the data set on Sodium Channel, Site 2 worked out at 21%.
